Source: patent EP2841543B1, “IMPROVEMENTS RELATING TO FABRIC FRESHNESS” (Unilever PLC, priority 2012, dated 2013)

Assay: Production and decomposition of squalene hydroperoxides with Rose Bengal and metal ion catalyst, monitored by HPLC
Procedure: Aldrich), 10 ml of acetone and 200 µl of Rose Bengal solution (2 mg/ml). Rose Bengal (4,5,6,7-tetrachloro-2',4',5',7'-tetraiodofluorescein) is a singlet-oxygen photobleach. Air was bubbled through the solution over the whole of the 3 hour monitoring period without the metal ion catalyst, under irradiation by a xenon lamp to simulate day-light. […] The reaction monitored by HPLC using via UV. detection at 230 nm and 260 nm and actonitrile was the mobile phase. The first HPLC measurement taken was at t=0 (before addition of Rose Bengal). Typically the squalene peak was eluted at 15 minutes, and the hydroperoxides eluted at times between 2-10 minutes. For the purpose of the experiment the hydroperoxide peaks at 3 and 5.7 minutes after starting the column were monitored for any change in relative peak height.

[1] = time 1.5 h, RB None, IronMeN4py Yes (5 mg catalyst added after 90 minutes)
[2] = time 1.0 h, RB Yes, IronMeN4py None, squalene in acetone, air, xenon lamp, 10 °C
[3] = time 3.0 h, RB Yes, IronMeN4py None, squalene in acetone, air, xenon lamp, 10 °C

Row | SMILES | Relative Peak Height at t=3 minutes [1] | Relative Peak Height at t=5.7 minutes [1] | Relative Peak Height at t=3 minutes [2] | Relative Peak Height at t=5.7 minutes [2] | Relative Peak Height at t=3 minutes [3] | Relative Peak Height at t=5.7 minutes [3]
1 | CC(c1ccccn1)(c1ccccn1)N(Cc1ccccn1)Cc1ccccn1.[Cl-].[Cl-].[Fe+2] [IronMeN4py, iron(II) N,N-bis(pyridine-2-yl-methyl)-1,1-bis(pyridine-2-yl)-1-aminoethane dichloride] | 0 | 300 |  |  |  | 
2 | O=C1OC2(c3cc(I)c(O)c(I)c3Oc3c2cc(I)c(O)c3I)c2c(Cl)c(Cl)c(Cl)c(Cl)c21 [RB, 4,5,6,7-tetrachloro-2',4',5',7'-tetraiodofluorescein] |  |  | 600 | 2100 | 2000 | 2100
